Test results reported in patent US20080306133A1, “INTRANASAL ADMINISTRATION OF ASENAPINE AND PHARMACEUTICAL COMPOSITIONS THEREFOR” (priority 2007, published 2008).
Counter-ions that a name gives are not always drawn.

Tests used:
[1] = oral dosage form; cited from earlier work
[2] = 10 mg/day (5 mg twice daily); randomised, double-blind, placebo-controlled trials; cited from earlier work
Solubility in water = format: physicochemical; conditions: pH of about 4.0 to about 5.0

Row | solubility (Solubility in water) [µg/mL] | SMILES | bioavailability [1] [%] | efficacy in the treatment of schizophrenia as assessed by the Positive and Negative Symptoms Scale (PANSS) [2]
1 | – | CN1C[C@@H]2c3ccccc3Oc3ccc(Cl)cc3[C@H]2C1 (relative stereo) [Asenapine, trans-5-chloro-2-methyl-2,3,3a,12b-tetrahydro-1H-dibenz[2,3:6,7]oxepino[4,5-c]pyrrole] | < 1 | effective
2 | ~10000 | CN1CC2c3ccccc3Oc3ccc(Cl)cc3C2C1 (stereo not drawn) [Asenapine maleate] | – | –
